Reference: patent US11787812B2, “Substituted pyrazolo[4,3-d]pyrimidines and imidazo[5,1 -f][1,2,4]triazines as androgen receptor and phosphodiesterase dual inhibitors” (ILDONG PHARMACEUTICAL CO., LTD., priority 2020, dated 2023)
Like-named read-outs stand apart in the source and are kept apart here.

How the values were obtained:
human PDE-5A1 = human PDE-5A1 (Homo sapiens (Human), UniProt O76074); assay: Human PDE-5A1 inhibition assay (fluorescence polarization, FAM-cGMP); assay type: biochemical; conditions: human PDE5A1, 100 nM FAM-cGMP, 60 minutes room temperature
Excerpt: This example illustrates the in vitro inhibition of human PDE-5A1 by exemplary compounds of this disclosure (e.g., as described herein).
Sildenafil citrate (Catalog no. LKT-S3313, Axxora, San Diego, CA), Vardenafil hydrochloride trihydrate (Catalog no. SML2103, Sigma-Aldrich, St. Louis, MO), PDE Assay Buffer (Catalog no. 60393, BPS bioscience, San Diego, CA), PDE Binding Agent (Catalog no. 60390, BPS bioscience, San Diego, CA) and PDE Binding Agent Diluent (cGMP, Catalog no. 60392, BPS bioscience, San Diego, CA) were used for assays. Test compounds were supplied by Ildong Pharmaceuticals Co., Ltd.
The serial dilution of the compounds was first performed in 100% DMSO with the highest concentration at 1 mM and 0.1 mM. Each intermediate compound dilution (in 100% DMSO) will then get directly diluted 10× fold into assay buffer for 10% DMSO and 5 μL of the dilution was added to a 50 μL reaction so that the final concentration of DMSO is 1% in all reactions.
The enzymatic reactions were conducted at room temperature for 60 minutes in a 50 μL mixture containing PDE assay buffer, 100 nM FAM-cGMP, a PDE enzyme (Table 2) and the test compounds.
After enzymatic reaction, 100 μL of a binding solution (1:100 dilution of the binding agent with the binding agent diluent) was added to each reaction and the reaction was performed at room temperature for 60 minutes.
Fluorescence intensity was measured at excitation of 485 nm and an emission of 528 nm using a Tecan Infinite M1000 microplate reader.
PDE activity assays were performed in duplicate at each concentration. Fluorescence intensity is converted to fluorescence polarization using the Tecan Magellan6 software. The fluorescence polarization (FPt) in absence of the compound in each data set was defined as 100% activity. In the absence of PDE and the compound, the value fluorescent polarization (FPb) in each data set was defined as 0% activity. The percent activity in the presence of compound was calculated according to Equation 1:
[formula] where FP=the fluorescence polarization in the presence of the compound.
The values of % activity versus a series of compound concentrations were then plotted using non-linear regression analysis of Sigmoidal dose-response curve generated with Equation 2:
[formula] where Y=percent activity, B=minimum percent activity, T=maximum percent activity, X=logarithm of compound, and Hill Slope=slope factor or Hill coefficient. The IC50 value was determined by the concentration causing a half-maximal percent activity. Results

Human androgen receptors = Human androgen receptors (Homo sapiens (Human), UniProt P10275, T878A); assay: Androgen receptor (AR) radioligand binding assay
Chain of Human androgen receptors (P10275 whole entry T878A): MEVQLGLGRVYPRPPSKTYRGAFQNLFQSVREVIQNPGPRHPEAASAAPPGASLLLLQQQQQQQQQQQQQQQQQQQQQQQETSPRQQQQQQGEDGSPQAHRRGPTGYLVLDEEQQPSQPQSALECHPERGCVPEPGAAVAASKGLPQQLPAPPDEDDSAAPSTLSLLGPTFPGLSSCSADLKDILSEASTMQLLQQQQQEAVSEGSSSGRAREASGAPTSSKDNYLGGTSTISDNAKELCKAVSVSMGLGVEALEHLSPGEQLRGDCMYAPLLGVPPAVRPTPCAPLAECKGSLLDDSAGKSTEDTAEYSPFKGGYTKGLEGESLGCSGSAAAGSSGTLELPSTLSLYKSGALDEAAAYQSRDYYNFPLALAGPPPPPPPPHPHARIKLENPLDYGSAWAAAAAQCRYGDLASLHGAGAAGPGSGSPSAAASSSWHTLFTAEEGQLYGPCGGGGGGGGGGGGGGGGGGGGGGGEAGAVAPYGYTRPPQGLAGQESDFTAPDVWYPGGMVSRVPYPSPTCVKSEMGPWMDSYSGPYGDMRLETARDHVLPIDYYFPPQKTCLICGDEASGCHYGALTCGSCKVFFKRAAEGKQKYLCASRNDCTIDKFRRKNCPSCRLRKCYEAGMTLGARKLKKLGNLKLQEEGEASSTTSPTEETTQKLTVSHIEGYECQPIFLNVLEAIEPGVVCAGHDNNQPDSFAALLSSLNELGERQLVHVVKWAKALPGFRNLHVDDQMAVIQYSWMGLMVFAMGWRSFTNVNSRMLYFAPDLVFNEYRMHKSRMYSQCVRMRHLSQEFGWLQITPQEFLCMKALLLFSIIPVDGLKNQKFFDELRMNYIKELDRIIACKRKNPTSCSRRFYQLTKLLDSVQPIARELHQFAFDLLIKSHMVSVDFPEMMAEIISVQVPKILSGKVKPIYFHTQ
Protocol: Methods employed in this study have been adapted from the following literature procedure.
Human androgen receptors obtained from human LNCaP cells are used in modified HEPES buffer pH 7.4. […] Non-specific binding is estimated in the presence of 1 μM testosterone. […] (See, e.g., Traish, A. M et al., Binding of 7α, 17α-dimethyl-19-nortestosterone (Mibolerone) to androgen and progesterone receptors in human and animal tissues. Endocrinology. 118(4): 1327-1333, 1986).
Compounds are screened at 10 μM.
Where presented, IC50 values were determined by a non-linear, least squares regression analysis using MathIQ™ (ID Business Solutions Ltd., UK).

androgen receptor (AR) = androgen receptor (AR) (Homo sapiens (Human), UniProt P10275); assay: Androgen receptor (AR) reporter assay, antagonist screen activated by R1881; assay type: cell-based; conditions: AR-UAS-bla GripTite 293 cells, antagonist mode, R1881 at EC80
Chain of androgen receptor (AR) (P10275 other isoform, or with tags, fused parts or gaps): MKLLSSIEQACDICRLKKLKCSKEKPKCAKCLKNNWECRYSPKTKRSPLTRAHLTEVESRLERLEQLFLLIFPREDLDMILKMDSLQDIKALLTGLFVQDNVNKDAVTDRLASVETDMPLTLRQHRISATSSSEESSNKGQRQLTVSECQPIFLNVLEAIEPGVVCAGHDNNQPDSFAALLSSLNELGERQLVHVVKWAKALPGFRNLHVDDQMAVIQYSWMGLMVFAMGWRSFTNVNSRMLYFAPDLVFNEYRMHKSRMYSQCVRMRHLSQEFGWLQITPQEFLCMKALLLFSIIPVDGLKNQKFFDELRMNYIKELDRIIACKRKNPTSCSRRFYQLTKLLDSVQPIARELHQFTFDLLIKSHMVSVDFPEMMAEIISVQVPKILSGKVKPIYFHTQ
Protocol: The protocols and results of this Example were carried out and obtained by Thermofisher Scientific.
Test compounds were received at 1000× (or greater) of the desired starting concentration in 100% DMSO. If compounds were supplied at greater that 1000× concentration, an initial dilution is made in 100% DMSO to bring the compounds to 1000× concentration. The 1000× test compounds were serially diluted (10 point ½-log increments) in 100% DMSO.
The Substrate Loading Solution consists of three Life Technologies reagents: Solution A (10 mM LiveBLAzer™-FRET B/G Substrate), Solution B and Solution C.
Androgen Receptor (AR)—Antagonist Screen, Activated by R1881
AR-UAS-bla GripTite™ 293 cells were thawed and resuspended in Assay Media (DMEM phenol red free, 2% CD-treated FBS, 0.1 mM NEAA, 1 mM Sodium Pyruvate, 100 U/mL/100 μg/mL Pen/Strep) to a concentration of 312,500 cells/mL. 4 μL of a 10× serial dilution of Cyproterone Acetate (control antagonist starting concentration, 3,160 nM) or compounds are added to appropriate wells of a Poly-D-Lysine assay plate. 32 μL of cell suspension was added to the wells and pre-incubated at 37° C./5% CO2 in a humidified incubator with compounds and control antagonist titration for 30 minutes. 4 μL of 10× control agonist R1881 at the pre-determined EC80 concentration was added to wells containing the control antagonist or compounds. The plate was incubated for 16-24 hours at 37° C./5% CO2 in a humidified incubator. 8 μL of 1 μM Substrate Loading Solution is added to each well and the plate was incubated for 2 hours at room temperature. The plate was read on a fluorescence plate reader (Tecan Safire^2).

[1] = receptors from human LNCaP cells, 0.5 nM [3H]Methyltrienolone, 20 hours at 4° C., read-out: AR IC50

IC50 (Human androgen receptors; read-out: AR IC50)	SMILES	IC50 (human PDE-5A1)	IC50 (Human androgen receptors; [1])	IC50 (androgen receptor (AR))	IC50 (Human androgen receptors)
–	CCCc1nc(C)c2c(=O)[nH]c(-c3cc(N4C(=S)N(c5ccc(C#N)c(C(F)(F)F)c5)C(=O)C4(C)C)ccc3OCC)nn12 [Compound 18, 4-(3-(4-ethoxy-3-(5-methyl-4-oxo-7-propyl-3,4-dihydroimidazo[5,1-f][1,2,4]triazin-2-yl)phenyl)-4,4-dimethyl-5-oxo-2-thioxoimidazolidin-1-yl)-2-(trifluoromethyl)benzonitrile]	≤ 10 nM	< 50 nM	≤ 500 nM	–
–	CCCc1nn(C)c2c(=O)[nH]c(-c3cc(N4C(=S)N(c5cnc(C#N)c(C(F)(F)F)c5)C(=O)C4(C)C)ccc3OCC)nc12 [Compound 19, 5-(3-(4-ethoxy-3-(1-methyl-7-oxo-3-propyl-6,7-dihydro-1H-pyrazolo[4,3-d]pyrimidin-5-yl)phenyl)-4,4-dimethyl-5-oxo-2-thioxoimidazolidin-1-yl)-3-(trifluoromethyl)picolinonitrile]	> 100 nM	> 200 nM	500 to 1000 nM	–
50 to 200 nM	CCCc1nc(C)c2c(=O)[nH]c(-c3cc(N4C(=S)N(c5cnc(C#N)c(C(F)(F)F)c5)C(=O)C4(C)C)ccc3OCC)nn12 [Compound 20, 5-(3-(4-ethoxy-3-(5-methyl-4-oxo-7-propyl-3,4-dihydroimidazo[5,1-f][1,2,4]triazin-2-yl)phenyl)-4,4-dimethyl-5-oxo-2-thioxoimidazolidin-1-yl)-3-(trifluoromethyl)picolinonitrile]	≤ 10 nM	–	≤ 500 nM	–
–	CCCc1nn(C)c2c(=O)[nH]c(-c3cc(N4C(=S)N(c5ccc(C#N)c(C(F)(F)F)c5)C(=O)C45CCC5)ccc3OCC)nc12 [Compound 21, 4-(5-(4-ethoxy-3-(1-methyl-7-oxo-3-propyl-6,7-dihydro-1H-pyrazolo[4,3-d]pyrimidin-5-yl)phenyl)-8-oxo-6-thioxo-5,7-diazaspiro[3.4]octan-7-yl)-2-(trifluoromethyl)benzonitrile]	> 100 nM	> 200 nM	≤ 500 nM	–
–	CCCc1nc(C)c2c(=O)[nH]c(-c3cc(N4C(=S)N(c5ccc(C#N)c(C(F)(F)F)c5)C(=O)C45CCC5)ccc3OCC)nn12 [Compound 22, 4-(5-(4-ethoxy-3-(5-methyl-4-oxo-7-propyl-3,4-dihydroimidazo[5,1-f][1,2,4]triazin-2-yl)phenyl)-8-oxo-6-thioxo-5,7-diazaspiro[3.4]octan-7-yl)-2-(trifluoromethyl)benzonitrile]	≤ 10 nM	–	≤ 500 nM	50 to 200 nM
–	CCCc1nn(C)c2c(=O)[nH]c(-c3cc(N4C(=S)N(c5cnc(C#N)c(C(F)(F)F)c5)C(=O)C45CCC5)ccc3OCC)nc12 [Compound 23, 5-(5-(4-ethoxy-3-(1-methyl-7-oxo-3-propyl-6,7-dihydro-1H-pyrazolo[4,3-d]pyrimidin-5-yl)phenyl)-8-oxo-6-thioxo-5,7-diazaspiro[3.4]octan-7-yl)-3-(trifluoromethyl)picolinonitrile]	> 100 nM	> 200 nM	≤ 500 nM	–
–	CCCc1nc(C)c2c(=O)[nH]c(-c3cc(N4C(=S)N(c5ccc(C#N)c(C(F)(F)F)c5)C(=O)C4C)ccc3OCC)nn12 (stereo not drawn) [Compound 26, 4-(3-(4-ethoxy-3-(5-methyl-4-oxo-7-propyl-3,4-dihydroimidazo[5,1-f][1,2,4]triazin-2-yl)phenyl)-4-methyl-5-oxo-2-thioxoimidazolidin-1-yl)-2-(trifluoromethyl)benzonitrile]	≤ 10 nM	> 200 nM	> 100 nM	–
–	CCCc1nc(C)c2c(=O)[nH]c(-c3cc(S(=O)(=O)NC4CN(c5ccc(C#N)c(C(F)(F)F)c5)C4)ccc3OCC)nn12 [Compound 29, N-(1-(4-cyano-3-(trifluoromethyl)phenyl)azetidin-3-yl)-4-ethoxy-3-(5-methyl-4-oxo-7-propyl-3,4-dihydroimidazo[5,1-f][1,2,4]triazin-2-yl)benzenesulfonamide]	≤ 10 nM	–	500 to 1000 nM	50 to 200 nM
–	CCCc1nc(C)c2c(=O)[nH]c(-c3cc(S(=O)(=O)NC4CCN(c5ccc(C#N)c(C(F)(F)F)c5)CC4)ccc3OCC)nn12 [Compound 30, N-(1-(4-cyano-3-(trifluoromethyl)phenyl)piperidin-4-yl)-4-ethoxy-3-(5-methyl-4-oxo-7-propyl-3,4-dihydroimidazo[5,1-f][1,2,4]triazin-2-yl)benzenesulfonamide]	≤ 10 nM	< 50 nM	≤ 500 nM	–
–	CCCc1nc(C)c2c(=O)[nH]c(-c3cc(S(=O)(=O)NC4CCN(c5ccc(C#N)c(C(F)(F)F)c5)C4)ccc3OCC)nn12 (stereo not drawn) [Compound 31, N-(1-(4-cyano-3-(trifluoromethyl)phenyl)pyrrolidin-3-yl)-4-ethoxy-3-(5-methyl-4-oxo-7-propyl-3,4-dihydroimidazo[5,1-f][1,2,4]triazin-2-yl)benzenesulfonamide]	≤ 10 nM	–	500 to 1000 nM	50 to 200 nM
–	CCCc1nc(C)c2c(=O)[nH]c(-c3cc(S(=O)(=O)NC4CCN(c5ccc(C#N)c(C(F)(F)F)c5)C4=O)ccc3OCC)nn12 (stereo not drawn) [Compound 32, N-(1-(4-cyano-3-(trifluoromethyl)phenyl)-2-oxopyrrolidin-3-yl)-4-ethoxy-3-(5-methyl-4-oxo-7-propyl-3,4-dihydroimidazo[5,1-f][1,2,4]triazin-2-yl)benzenesulfonamide]	≤ 10 nM	> 200 nM	> 100 nM	–
–	CCCc1nc(C)c2c(=O)[nH]c(-c3cc(S(=O)(=O)NC4CC(=O)N(c5ccc(C#N)c(C(F)(F)F)c5)C4)ccc3OCC)nn12 (stereo not drawn) [Compound 33, N-(1-(4-cyano-3-(trifluoromethyl)phenyl)-5-oxopyrrolidin-3-yl)-4-ethoxy-3-(5-methyl-4-oxo-7-propyl-3,4-dihydroimidazo[5,1-f][1,2,4]triazin-2-yl)benzenesulfonamide]	≤ 10 nM	> 200 nM	> 100 nM	–
–	CCCc1nc(C)c2c(=O)[nH]c(-c3cc(N4C(=S)N(c5ccc(C#N)c(C(F)(F)F)c5)C(=O)C45CCOC5)ccc3OCC)nn12 (stereo not drawn) [Compound 34, 4-(1-(4-ethoxy-3-(5-methyl-4-oxo-7-propyl-3,4-dihydroimidazo[5,1-f][1,2,4]triazin-2-yl)phenyl)-4-oxo-2-thioxo-7-oxa-1,3-diazaspiro[4.4]nonan-3-yl)-2-(trifluoromethyl)benzonitrile]	≤ 10 nM	–	≤ 500 nM	50 to 200 nM
